Source: US20260023068A1, “USE OF A FBXO42 SPECIFIC INHIBITOR IN TREATING NOTCH SIGNALING-DEPENDENT DISEASE” (WESTLAKE UNIVERSITY, priority 2022, published 2026)

Columns and labels:
[1] = test system: global protein ubiquitination; assay: Global mass spectrometry-based analysis of protein ubiquitination; type: cell-based; conditions: global ubiquitination changes upon MLN4924 treatment (FIGS. 5E and 5F)
Experimental: (A) Endogenous RBPJ ubiquitination was measured under FBXO42 overexpression after immunoprecipitation with antibody against RBPJ and immunoblotted for Ub. Five percent lysate was used as the input control. (B) cSFB-RBPJ, hemagglutinin-ubiquitin (HA-Ub) and Myc-FBXO42 WT or AK mutant were cotransfected into HEK293T cells as indicated and treated with MG132 for 4 h. The cell lysates were incubated with S beads and analyzed by western blotting for RBPJ polyubiquitination detection. (C) Peptide sequence with ubiquitination modification identified in WT and FBXO42 KO cells. (D) HEK293T cells were cotransfected with Myc-FBXO42, HA-Ub WT along with cSFB-RBPJ WT or its lysine mutants as indicated. The cell lysates were incubated with S beads and analyzed by western blotting for RBPJ polyubiquitination detection. (E) Summary of identified peptides in global ubiquitination analysis upon MLN4924 treatment or FBXO42 depletion. (F) Percentage of ubiquitinated peptides among different groups. (G and H) Gene Ontology analysis of these proteins with differential ubiquitination modification. (I and J) Venn diagram showing the overlap between identified differential proteins with reported Notch interactors.
Global protein ubiquitination analysis was performed according to the manufacture's guidance (5562, CST). […]

[2] = test system: JURKAT and HSB2 cells; assay: Cell viability, cell counting kit-8 assay; type: cell-based, human; conditions: JURKAT and HSB2, concentration gradient, 36 h, CCK-8 (FIG. 12L)
Experimental: (§1) FBXO42-KO cells were rescued with WT FBXO42 or F-box deletion mutant and were used in the following studies. (A-C) The mRNA levels of Notch target genes in the treated HEK293T (A), JURKAT (B) and HSB2 (C) cells were determined by qPCR. (D-G) The invasion abilities of the treated JURKAT (D) and HSB2 (F) cells were evaluated using a 3D culture system with Matrigel. Scale bars, 50 μm. The respective average diameter of the spheres in D and F was summarized, respectively (E and G). (H-K) Anchorage-independent growth of the rescued JURKAT (H) and HSB2 (J) cells was measured using a soft agar colony formation assay. The number of colonies in H and J was counted and summarized, respectively (I and K). (L) JURKAT and HSB2 cells were treated with MLN4924 in a concentration-gradient manner for 36 h and then evaluated for the cell viability using cell counting kit-8 assay. (M and N) The expression of Notch target genes in MLN4924-treated JURKAT (M) and HSB2 (N) cells were determined by qPCR. (O-R) Anchorage-independent growth of MLN4924-treated JURKAT (0) and HSB2 (Q) cells was measured using soft agar colony formation assays. The number of colonies was counted and summarized (P and R). (A-R, n=3) The data are shown as the mean±SEM from the independent experiments. P values were calculated using one-way ANOVA for multiple comparisons or two-tailed Student's t-tests. *P<0.05, ** P<0.01, *** P<0.001.

[3] = test system: JURKAT and HSB2 cells; assay: Soft agar colony formation assay (anchorage-independent growth); type: cell-based, human; conditions: JURKAT and HSB2, soft agar colony formation (FIG. 12O-R)
Experimental: as §1

[4] = test system: FBXO42-mediated K63-linked polyubiquitination of RBPJ; assay: In vivo ubiquitination assay of RBPJ in transfected HEK293T cells; type: cell-based, human; conditions: DMSO or MLN4924, western blotting (FIG. 4K)
Experimental: (A) cSFB-RBPJ, hemagglutinin-ubiquitin (HA-Ub) and Myc-FBXO42 WT were cotransfected into HEK293T cells as indicated and treated with or without MG132 for 4 h. The cell lysates were incubated with S beads and analyzed by western blotting for RBPJ polyubiquitination detection. (B) Immunoprecipitated endogenous RBPJ products from WT and FBXO42 KO cells were immunoblotted for Ub. (C) cSFB-RBPJ, hemagglutinin-ubiquitin (HA-Ub) and Myc-FBXO42 WT or AF mutant were cotransfected into HEK293T cells. The cell lysate was collected and analyzed for RBPJ polyubiquitination. (D) HEK293T cells were transfected with cSFB-RBPJ, Myc-FBXO42 and HA-Ub with or without FLAG-NICD1 overexpression. The cell lysates were incubated with S beads and analyzed by western blotting for RBPJ polyubiquitination detection. […] The degree of RBPJ polyubiquitination was evaluated as described above. […] The cell lysates were incubated with S beads and analyzed by western blotting for RBPJ polyubiquitination detection. […] (J) Quantitation of the results shown in (I). […] The cell lysates were analyzed for RBPJ ubiquitination. […] (P) Efficiency of RBPJ short interfering RNAs (siRNAs) detected via western blotting. […] Quantitative data are presented as mean±SEM. P values were calculated using two-tailed Student's t-tests or ANOVA for multiple comparison. *P<0.05, **P<0.01, ***P<0.001, ##P<0.01 vs. FBXO42. […]

## NS(=O)(=O)OC[C@@H]1C[C@@H](n2ccc3c(N[C@H]4CCc5ccccc54)ncnc32)C[C@@H]1O [MLN4924]
[1]
  percentage of ubiquitinated peptides: decreased
[2]
  cell viability of leukemia cells: diminished
[3]
  anchorage-independent growth of leukemia cells: diminished
[4]
  FBXO42-mediated K63-linked polyubiquitination of RBPJ: effectively abrogated
